This note sets out measurements from patent publication US7390836B2, “Small molecules used to increase cell death” (priority 1999, dated 2008).

One data set deals with Jurkat cells. Briefly: Cytotoxicity by MTS assay and propidium iodide uptake. In kind it is cell-based. As for the experimental part: Since BH3Is induce apoptosis, their mode of action, for example, through disruption of BH3 domain interactions, was investigated next. If apoptosis induced by a BH3I is BH3-dependent, then cytotoxicity should correlate with the compound's ability to disrupt BH3 domain interactions in vitro. To examine this possibility, Jurkat cells were treated with the BH3 Is and the occurrence of cell death was assayed by the MTS assay and propidium iodide (PI) uptake (FIG. 7A). The cytotoxicity of BH3-Is followed the order of BH3I-2′>BH3I-2>BH3I-2″>BH3I-1>BH3I-1′>BH3I-1″>BH3I-1′″ which paralleled the order of their Ki values determined using in vitro Bcl-xL binding assays (FIGS. 7B and 7C). Similar data were obtained using a trypan blue exclusion assay.
On the technique in general: Formazan colour is commonly taken as a measure of viable cells.

Data set [1] relates to Bak BH3 peptide / Bcl-xL (Bcl-xL/GST, Bcl-xL-His6) interaction. Briefly: Fluorescence polarization assay, labeled Bak BH3 peptide binding to Bcl-xL fusion protein. The following applies: for order of affinities of BH3Is: overall rank order from FP, NMR, pulldown and SELDI results; for order of decreasing affinity, fluorescence polarization assays: rank order. The source says:
We have used a fluorescence polarization assay to screen a library of 16,000 chemical compounds (ChemBridge, San Diego, Calif.) to identify small molecules that inhibit the interaction between a peptide corresponding to the BH3 domain of a pro-apoptotic protein and a recombinant Bcl-xL/GST fusion protein. In this assay, an […] peptide corresponding to the BH3 domain of Bak was used. The Bak peptide was labeled with a fluorescent tag, such as OREGON GREEN. Upon binding of the tagged peptide to the Bcl-xL/GST fusion protein, the polarization of light emitted by the tagged peptide is altered. […] Conversely, in a sample in which a compound does inhibit the interaction between the Bak peptide and the Bcl-xL/GST fusion protein the polarization of light emitted by the peptide will not be altered.
A nineteen amino acid Bak peptide, corresponding to the BH3 domain of Bak, with the sequence […] (SEQ ID NO: 2) was labeled with the fluorophore OREGON GREEN according to the manufacturer's instructions (Molecular Probes, Eugene, Oreg.). In addition, a recombinant Bcl-xL/GST fusion protein was generated using conventional techniques known to those skilled in the fields of biochemistry and molecular biology. The interaction between the Bak peptide and the Bcl-xL/GST fusion protein was confirmed.
A screen of approximately 16,000 compounds from the ChemBridge chemical compound library was conducted to identify compounds that disrupt the interaction between the Bak peptide and the Bcl-xL/GST fusion protein. The ability of a compound to disrupt the interaction between the two polypeptides was assessed using a fluorescence polarization assay. The Bak peptide and Bcl-xL/GST fusion protein (15 nM each; dissolved in PBS) were first combined, and then the compound was added. Alternatively, the Bak peptide, Bcl-xL/GST fusion protein, and test compound (5 mg/ml; dissolved in 0.1-0.5 gl of DMSO) may be combined in any order. Normally the unbound Bak polypeptide results in polarization of approximately 40 mP units. Upon binding of the Bcl-xL/GST fusion protein, polarization increased to approximately 100-120 mP units.
In a preferred method, the fluorescence assay was carried out as follows. Bak BH3 peptide (Research Genetics) was labeled using NHS-OREGON GREEN (Molecular Probes) and purified by HPLC. For the initial screening assays, 33 nM of labeled BH3 peptide, 2 μM of GST-Bcl-xL protein, 0.1% bovine gamma globulin (BGG, Sigma) and 1 mM DTT mixed with PBS, pH 7.2 (Gibco) were added into 384 well black plates (Lab Systems) using MULTIDROP (Lab Systems). Small molecules (5 mg/ml in DMSO, ChemBridge) were transferred using plastic 384-pin arrays (Genetix). The plates were incubated for 1-2 hr at 25° C., and the fluorescence polarization assay values were determined using an Analyst plate reader (LJL Biosystems). Reactions containing 16.65 nM of labeled BH3 peptide and 4.2 μM of Bcl-xL-His6 fusion protein, which was previously utilized to characterize BH3/Bcl-xL binding (Sattler et al., Science 275:983-6, 1997) were used for the further fluorescence polarization analyses. Kd and Ki determination was performed as previously described using […] PRISM software package (GraphPad) (Dandliker et al., Methods Enzymol. 74:3-28,1981).
In a further screen, various concentrations of each of the above-identified compounds were evaluated for their potency. A serial dilution of each chemical compound was performed and the fluorescence polarization assay was repeated, as per the primary screen. As a result of the secondary screening, three compounds, chemical compound ID numbers 275805 (BH3I-1; FIG. 1), 282986 (BH3I-1′; FIG. 2), and 175362 (BH3I-2; FIG. 3), collectively termed “BH3Is,” were identified to disrupt the interaction between Bak and the BCL-xL/GST fusion protein. […] Additional homologues of the BH3I-1s (BH3I-1″ and BH3I-1′″) and BH3I-2 (BH3-2″ and BH3I-2″) were also analyzed in the study (FIG. 4). […]
For orientation: Fluorescence polarisation rises when a labelled molecule tumbles more slowly, as on binding a larger partner.

A further data set concerns the target T1, Bcl-xL (Homo sapiens, UniProt Q07817, DEL45-84).
T1 construct: His6 (C); made in house
Briefly: NMR titration of Bcl-xL. Conditions: rank order. The class given is binding. The procedure:
To verify this conclusion, NMR titrations of Bcl-xL with BH3I-1s were performed and their Ki values were determined (FIG. 4). […] The BH3I-1s Ki values obtained by the NMR approach agree with the results of both pulldown and SELDI analyses. Therefore, the order of affinities of BH3Is is: BH312′>BH3I-2>BH3I-2″>BH3I-1>BH3I-1′>BH3I-1″>BH3I-1′″.
NMR titration was used to examine whether BH3Iinteracts with the binding pocket of Bcl-xL in a manner similar to Bak BH3 peptide (Hajduk et al., Science 278:497-499, 1997).
Next, changes in Bcl-xL structure upon addition of increasing amounts of BH3Is were determined. Each of the BH3Is induced significant changes in the Bcl-xL structure. The compounds targeted the hydrophobic cleft formed by the BH1, BH2, and BH3 domains on the surface of the Bcl-xL protein, and primarily bound to the area formed by BH1 and BH2 domains.

The next data set concerns HeLa cells, Jurkat cells. Briefly: Caspase dependence of BH3I-induced cell death (zVAD-fmk). Conditions: Hoechst dye. The class given is cell-based. The procedure: FIG. 10A is a graph showing the comparison of BH3Is and Bax induced cell death. HeLa cells were transfected with YFP-Bax and pEYFP-C 1 for 48 hr in the absence (open bars) or presence (closed bars) of 100 μM zVAD-fmk. YFP transfected cells were also treated with BH3I-1 (100 μM) or BH3I-2 (50 μM) for 48 hours. Cell viability was determined by propidium iodide (PI) staining and microscopic examination of PI/YFP positive cells. Numbers represent the percentage of PI positive cells in the YFP positive population. The values of standard deviation are also shown.
FIG. 10B is a graph showing the attenuation of BH3Is' cytotoxicities by the pan-caspase inhibitor zVAD-fmk. Jurkat cells were treated with BH3I-1 or BH3I-2 in the presence (open bars) or absence (closed bars) of 100 μM zVAD-fmk (Alexis) for 48 hr. Cell death was determined using an MTS assay. Numbers represent the percentages of cell death, normalized relative to a DMSO treated control, which was set at 100% viability. Standard deviation values are also shown.
FIG. 10C is a set of images of cells showing that nuclear fragmentation, but not cytochrome c release, induced by BH3Is, requires caspases. […]
FIG. 10D-1-10D-6 are a series of graphs showing DNA fragmentation analysis of Jurkat cells treated with BH3Is and zVAD-fmk. […] Samples were analyzed by FACS, and the percentage of subG1 DNA is shown for each sample. […]

In data set [2] the test system is HeLa cells that stably overexpress human BCL-XL. Briefly: Cell death by ATP levels in Bcl-xL overexpressing cells after zVAD-fmk pretreatment. The class given is cell-based. Conditions: zVAD-fmk 100 μM pretreatment, 48 or 72 hours. The procedure: In another study, HeLa cells that stably overexpress human BCL-XL, and are therefore more resistant to cell death, were pretreated with zVAD-fmk (100 μM) for 1 hour, as described above. Each of the chemical compounds BH3I-1, BH3I-1′, and BH3I-2 from the ChemBridge library was then added to the media of the cells of three separate samples. After 48 or 72 hours of exposure of the cells to zVAD-fmk and the chemical compound, the level of cell death was measured for each sample, by measuring cellular ATP levels.

For another data set, the system named is HeLa cells. Briefly: Cell death by ATP levels after zVAD-fmk pretreatment. The class given is cell-based. Conditions: zVAD-fmk 100 μM pretreatment, 48 or 72 hours. The procedure: The conditions under which cell death occurs in the presence of BH3Is were further evaluated. HeLa cells were pretreated with zVAD-fmk (100 μM) for 1 hour. The purpose of such a treatment was to inhibit the intracellular pathways mediating cell death by apoptosis. Each of the chemical compounds BH3I-1, BH3I-1′, or BH3I-2 was then added to the media of the cells of three separate samples. After 48 or 72 hours of exposure of the cells to zVAD-fmk and the chemical compound, the level of cell death was measured for each sample, by measuring cellular ATP levels.

The mark [3] stands for this setting: MTS assay and PI uptake, rank order.

Where two headings read alike, the source gives them in different places. Peptide text beside a SMILES is read from it. * marks the point of attachment. Cbz = O=C(OCc1ccccc1)*; CH2F = FC*

T1 sequence (Q07817 with tags, fused parts or gaps DEL45-84 limits assumed): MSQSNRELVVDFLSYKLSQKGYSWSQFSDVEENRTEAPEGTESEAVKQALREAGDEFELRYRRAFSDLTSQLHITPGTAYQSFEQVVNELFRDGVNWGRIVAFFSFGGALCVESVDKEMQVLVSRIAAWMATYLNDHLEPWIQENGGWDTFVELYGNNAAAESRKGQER

As to `CC(C)C(C(=O)O)N1C(=O)/C(=C/c2ccc(N(C)C)cc2)SC1=S` (stereo not shown) [BH3I-1′″], the order of cytotoxicity entry in the data set on Jurkat cells is recorded as “BH3I-2′>BH3I-2>BH3I-2″>BH3I-1>BH3I-1′>BH3I-1″>BH3I-1′″”. The “order of affinities of BH3Is” value in data set [1] was “BH312′>BH3I-2>BH3I-2″>BH3I-1>BH3I-1′>BH3I-1″>BH3I-1′″”. Moreover, the “relative order of affinities, NMR titrations” value on Bcl-xL is given as “BH3I-1>BH3I-1′>BH3I-1″>BH3I-1′″”.

On to `O=C(Nc1cc(S(=O)(=O)c2ccc(Cl)cc2)ccc1Cl)c1cc(I)cc(I)c1O` [BH3I-2″], for which the order of cytotoxicity entry in the data set on Jurkat cells (setting [3]) is on record as “BH3I-2′>BH3I-2>BH3I-2″>BH3I-1>BH3I-1′>BH3I-1″>BH3I-1′″”. In data set [1], the “order of affinities of BH3Is” value is on record as “BH312′>BH3I-2>BH3I-2″>BH3I-1>BH3I-1′>BH3I-1″>BH3I-1′″” and the “order of decreasing affinity, fluorescence polarization assays” value (shortened to “order of decreasing affinity”) was “BH3I-1>BH3I-1′>BH3I-2′>BH3I-2>BH3I-2″>BH3I-1″”.

Turning to `COC(=O)C[C@H](NC(=O)[C@H](C)NC(=O)[C@@H](NC(=O)OCc1ccccc1)C(C)C)C(=O)CF` [zVAD-fmk] (Cbz-Val-Ala-Asp(OMe)-CH2F), the “protection from BH3I-induced nuclear fragmentation” value in the data set with HeLa cells, Jurkat cells was “completely protected cells from BH3I-induced nuclear fragmentation”.

In the case of `CC(C)C(C(=O)O)N1C(=O)/C(=C/c2ccc(Cl)cc2)SC1=S` (stereo not shown) [BH3I-1′], the order of cytotoxicity result in the data set on Jurkat cells (setting [3]) was “BH3I-2′>BH3I-2>BH3I-2″>BH3I-1>BH3I-1′>BH3I-1″>BH3I-1′″”. Moreover, in data set [1], the “order of affinities of BH3Is” value is listed as “BH312′>BH3I-2>BH3I-2″>BH3I-1>BH3I-1′>BH3I-1″>BH3I-1′″”. Also, in data set [1], the “order of decreasing affinity” value is reported as “BH3I-1>BH3I-1′>BH3I-2′>BH3I-2>BH3I-2″>BH3I-1″”. Further, the “cellular ATP levels” value (in data set [2]; in the data set with HeLa cells) was “cellular ATP levels decreased” throughout. Further, the “relative order of affinities, NMR titrations” value on Bcl-xL is listed as “BH3I-1>BH3I-1′>BH3I-1″>BH3I-1′″”.

As to `O=C(Nc1cc(S(=O)(=O)c2ccc(Cl)cc2)ccc1Cl)c1cc(Cl)cc(I)c1O` [BH3I-2′], the order of cytotoxicity result in the data set with Jurkat cells (setting [3]) is listed as “BH3I-2′>BH3I-2>BH3I-2″>BH3I-1>BH3I-1′>BH3I-1″>BH3I-1′″”. Besides, in data set [1], the “order of affinities of BH3Is” value is listed as “BH312′>BH3I-2>BH3I-2″>BH3I-1>BH3I-1′>BH3I-1″>BH3I-1′″” and the “order of decreasing affinity” value is reported as “BH3I-1>BH3I-1′>BH3I-2′>BH3I-2>BH3I-2″>BH3I-1″”.
